Like-named read-outs stand apart in the source and are kept apart here.
What was measured:
[1] = tested on: LPS and nigericin stimulated cells; experiment: cells; assay type: cell-based; conditions: Homo sapiens; LPS and nigericin stimulated cells, CellTiter-Glo; read-out: CTG protective IC50
Protocol: Viability of compound treated cells is measured using CellTiter-Glo® assay (Promega, Madison, Wis.) that measures the ATP content of cells which is proportional to the number of live cells within a well. This is a counter-screen to establish that the reduction of IL-1β levels in LPS and nigericin stimulated and compound treated cells is not due to cytotoxicity, but rather through the inhibition of the inflammasome pathway. Compounds inhibiting NRLP3 inflammasome activation ultimately increase the viability of LPS and nigericin stimulated cells by blocking NLRP3 mediated pyroptosis that would otherwise lead to cell lysis.

NLRP3 inflammasome = NLRP3 inflammasome (Homo sapiens, UniProt Q96P20); experiment: NLRP3 inflammasome activation assay in PBMCs (LPS priming, nigericin), IL-1β by ELISA; assay type: cell-based; set-up: Human peripheral blood mononuclear cells (PBMCs); host or cells: primary human PBMCs from healthy donors; conditions: LPS, nigericin, read-out: PBMC IL-1β IC50
NLRP3 inflammasome, sequence (Q96P20 whole entry): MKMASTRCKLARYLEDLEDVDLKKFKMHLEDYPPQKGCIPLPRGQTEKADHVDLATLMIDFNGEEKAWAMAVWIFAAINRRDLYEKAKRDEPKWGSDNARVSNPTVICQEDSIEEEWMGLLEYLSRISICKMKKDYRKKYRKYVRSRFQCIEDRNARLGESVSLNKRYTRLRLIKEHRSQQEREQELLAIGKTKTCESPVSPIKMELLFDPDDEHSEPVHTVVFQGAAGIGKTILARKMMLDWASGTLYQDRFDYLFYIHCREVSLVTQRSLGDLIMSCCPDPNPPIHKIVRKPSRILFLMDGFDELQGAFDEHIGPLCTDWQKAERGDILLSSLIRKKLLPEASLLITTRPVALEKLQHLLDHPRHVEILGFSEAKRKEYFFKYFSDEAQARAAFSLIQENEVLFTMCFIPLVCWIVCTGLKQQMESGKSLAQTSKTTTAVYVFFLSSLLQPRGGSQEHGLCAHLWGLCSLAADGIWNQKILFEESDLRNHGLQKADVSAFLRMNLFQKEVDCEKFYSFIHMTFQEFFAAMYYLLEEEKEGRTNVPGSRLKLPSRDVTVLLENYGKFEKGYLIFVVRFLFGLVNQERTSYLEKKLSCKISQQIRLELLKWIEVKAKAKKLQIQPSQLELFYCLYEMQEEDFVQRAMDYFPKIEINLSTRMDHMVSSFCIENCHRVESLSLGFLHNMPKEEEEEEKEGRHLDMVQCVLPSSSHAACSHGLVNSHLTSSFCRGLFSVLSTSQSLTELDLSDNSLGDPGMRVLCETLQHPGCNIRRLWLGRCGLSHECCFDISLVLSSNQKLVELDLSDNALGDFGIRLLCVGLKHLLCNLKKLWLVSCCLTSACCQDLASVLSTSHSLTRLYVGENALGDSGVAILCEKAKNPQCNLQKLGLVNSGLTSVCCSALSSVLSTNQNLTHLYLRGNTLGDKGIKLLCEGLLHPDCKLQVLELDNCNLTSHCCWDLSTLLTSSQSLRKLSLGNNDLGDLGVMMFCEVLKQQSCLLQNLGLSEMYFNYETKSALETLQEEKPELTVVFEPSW
Protocol: Some of the following assays were used to determine the inhibitory activity of the compounds on the NLRP3 inflammasome using a common inflammasome activation stimuli-nigericin.
Human peripheral blood mononuclear cells (PBMCs), consisting of lymphocytes (T, B and NK cells), monocytes and dendritic cells, were freshly isolated from human peripheral blood from healthy donors. Cells were obtained through an IRB approved donor program by iXCells Biotechnologies where all the donors were tested for bacterial and viral infections. Cells were purified from peripheral blood using ficoll gradient centrifugation.
Cells were then stimulated with 10 uM Nigericin (Sigma Aldrich; InvivoGen) for 1.5 h. Plates were centrifuged at 1,500 rpm for 3 minutes to pellet cells and supernatant was transferred into new plates for subsequent experiments.
For ELISA assays cells were seeded into 96-well plates. Post study, supernatants were removed and the levels of mature IL-1β, IL-18 and TNFα (Quantikine ELISA, R&D systems) were measured in cell conditioned media by ELISA according to manufacturer's instructions.

Pharmacokinetics in mice = assay type: in vivo, CD-1 Mice; conditions: for Cmax / clearance / half-life / AUC(0-t) / Vd: mouse, plasma; for AUC(0-t): read-out: AUC 0-24 hr; for Vd: read-out: Vz
Protocol: The intravenous dosing solutions were administered at 1 mg/kg and were made by dissolving the test article into the formulations shown below. The oral dosing suspensions or solutions were administered at 10 mg/kg and were made by dissolving the test article in the formulations shown below. Blood samples were collected into tubes containing either K2EDTA or sodium heparin and kept chilled on ice block or wet ice immediately following collection and during processing. After centrifugation, the resulting plasma samples were stored in a freezer at −80° C. until samples were analyzed. Pharmacokinetic parameters were determined following measurement of compound concentrations in plasma using standard bioanalytical methods at timepoints ranging from 0 to 24 hours.

[2] = Female CD-1 Mice, PO, 10 mg/kg, 0.5% MC, 0.25% Tween 80
[3] = Male CD-1 Mice, PO, 10 mg/kg, 0.5% MC

Row | Compound | IC50 [1] [µM] | IC50 (NLRP3 inflammasome) [µM] | also measured
1 | CCN[C@@H]1COc2c(S(=O)(=O)NC(=O)Nc3c4c(cc5c3CCC5)CCC4)cnn2C1 | 1 to 10 | 1 to 10 | 
2 | CCNC1COc2c(S(=O)(=O)NC(=O)Nc3c4c(cc5c3CCC5)CCC4)cnn2C1 (stereo not drawn) | < 0.1 | < 0.1 | 
3 | CC(C)OC1COc2c(S(=O)(=O)NC(=O)Nc3c4c(cc5c3CCC5)CCC4)cnn2C1 (stereo not drawn) | < 0.1 | 0.1 to 1 | 
4 | O=C(Nc1c2c(cc3c1CCC3)CCC2)NS(=O)(=O)c1cnn2c1OCC(N1CCC1)C2 (stereo not drawn) | < 0.1 | < 0.1 | 
5 | COC1CN([C@H]2COc3c(S(=O)(=O)NC(=O)Nc4c5c(cc6c4CCC6)CCC5)cnn3C2)C1 [E] |  |  | Bioavailability (% F) (Pharmacokinetics in mice; [2]): 53 % F; Cmax (Pharmacokinetics in mice; Female CD-1 Mice, IV, 1 mg/kg): 2.83 µg/mL; clearance (Pharmacokinetics in mice; Female CD-1 Mice, IV, 1 mg/kg): 0.64 L/h/kg; half-life (Pharmacokinetics in mice; Female CD-1 Mice, IV, 1 mg/kg): 1.6 h; AUC(0-t) (Pharmacokinetics in mice; Female CD-1 Mice, IV, 1 mg/kg): 1.57 µg·h/mL; Vd (Pharmacokinetics in mice; Female CD-1 Mice, IV, 1 mg/kg): 1.47 L/kg; Cmax (Pharmacokinetics in mice; [2]): 8.62 µg/mL; half-life (Pharmacokinetics in mice; [2]): 1.9 h; AUC(0-t) (Pharmacokinetics in mice; [2]): 8.27 µg·h/mL
6 | CO[C@H]1COc2c(S(=O)(=O)NC(=O)Nc3c(C(C)C)cc(Cl)cc3C(C)C)cnn2C1 | 0.1 to 1 | 0.1 to 1 | 
7 | O=C(Nc1c(C2CC2)cc(Cl)cc1C1CC1)NS(=O)(=O)c1cnn2c1OCCC2 | 0.1 to 1 | 0.1 to 1 | 
8 | CN1CCn2nc(S(=O)(=O)NC(=O)Nc3c4c(cc5c3CCC5)CCC4)cc2C1 | 0.1 to 1 | 1 to 10 | 
9 | CC(C)c1cc(C#N)cc(C(C)C)c1NC(=O)NS(=O)(=O)c1cnn2c1OCCC2 | < 0.1 | 0.1 to 1 | 
10 | CC1(C)COc2c(S(=O)(=O)NC(=O)Nc3c4c(cc5c3CCC5)CCC4)cnn2C1 [A] |  |  | Bioavailability (% F) (Pharmacokinetics in mice; [3]): 64 % F; Cmax (Pharmacokinetics in mice; Male CD-1 Mice, IV, 1 mg/kg): 9.2 µg/mL; clearance (Pharmacokinetics in mice; Male CD-1 Mice, IV, 1 mg/kg): 0.04 L/h/kg; half-life (Pharmacokinetics in mice; Male CD-1 Mice, IV, 1 mg/kg): 2.8 h; AUC(0-t) (Pharmacokinetics in mice; Male CD-1 Mice, IV, 1 mg/kg): 29.2 µg·h/mL; Vd (Pharmacokinetics in mice; Male CD-1 Mice, IV, 1 mg/kg): 0.137 L/kg; Cmax (Pharmacokinetics in mice; [3]): 22.7 µg/mL; half-life (Pharmacokinetics in mice; [3]): 3.4 h; AUC(0-t) (Pharmacokinetics in mice; [3]): 186 µg·h/mL
11 | O=C(Nc1cc(C2CC2)cc(C2CC2)c1)NS(=O)(=O)c1cnn2c1OCCC2 | < 0.1 | 0.1 to 1 | 
12 | CO[C@H]1COc2c(S(=O)(=O)NC(=O)Nc3c(C(C)C)cc(F)cc3C(C)C)cnn2C1 | < 0.1 | < 0.1 | 
13 | O=C(Nc1c2c(cc3c1CCC3)CCC2)NS(=O)(=O)c1cc2n(n1)CCNC2 | < 0.1 | 0.1 to 1 | 
14 | CN(C)[C@H]1COc2c(S(=O)(=O)NC(=O)Nc3c4c(cc5c3CCC5)CCC4)cnn2C1 [C] |  |  | Bioavailability (% F) (Pharmacokinetics in mice; [3]): 33 % F; Cmax (Pharmacokinetics in mice; Male CD-1 Mice, IV, 1 mg/kg): 5.29 µg/mL; clearance (Pharmacokinetics in mice; Male CD-1 Mice, IV, 1 mg/kg): 0.34 L/h/kg; half-life (Pharmacokinetics in mice; Male CD-1 Mice, IV, 1 mg/kg): 1.3 h; AUC(0-t) (Pharmacokinetics in mice; Male CD-1 Mice, IV, 1 mg/kg): 2.99 µg·h/mL; Vd (Pharmacokinetics in mice; Male CD-1 Mice, IV, 1 mg/kg): 0.64 L/kg; Cmax (Pharmacokinetics in mice; [3]): 7.53 µg/mL; half-life (Pharmacokinetics in mice; [3]): 1 h; AUC(0-t) (Pharmacokinetics in mice; [3]): 9.95 µg·h/mL
15 | CC(C)(C)OC(=O)NCC1COc2c(S(=O)(=O)NC(=O)Nc3c4c(cc5c3CCC5)CCC4)cnn2C1 (stereo not drawn) | < 0.1 | < 0.1 | 
16 | O=C(Nc1c2c(cc3c1CCC3)CCC2)NS(=O)(=O)c1cnn2c1OCC1(CC1)C2 [B] |  |  | Bioavailability (% F) (Pharmacokinetics in mice; [3]): 100 % F; Cmax (Pharmacokinetics in mice; Male CD-1 Mice, IV, 1 mg/kg): 11.7 µg/mL; clearance (Pharmacokinetics in mice; Male CD-1 Mice, IV, 1 mg/kg): 0.05 L/h/kg; half-life (Pharmacokinetics in mice; Male CD-1 Mice, IV, 1 mg/kg): 1.9 h; AUC(0-t) (Pharmacokinetics in mice; Male CD-1 Mice, IV, 1 mg/kg): 20.2 µg·h/mL; Vd (Pharmacokinetics in mice; Male CD-1 Mice, IV, 1 mg/kg): 0.13 L/kg; Cmax (Pharmacokinetics in mice; [3]): 63 µg/mL; half-life (Pharmacokinetics in mice; [3]): 1.9 h; AUC(0-t) (Pharmacokinetics in mice; [3]): 256 µg·h/mL
17 | O=C(Nc1c2c(cc3c1CCC3)CCC2)NS(=O)(=O)c1cnn2c1C(F)CCC2 (stereo not drawn) | < 0.1 | 0.1 to 1 | 
18 | COCC1COc2c(S(=O)(=O)NC(=O)Nc3c4c(cc5c3CCC5)CCC4)cnn2C1 (stereo not drawn) | < 0.1 | 0.1 to 1 | 
19 | CCOC1COc2c(S(=O)(=O)NC(=O)Nc3c4c(cc5c3CCC5)CCC4)cnn2C1 (stereo not drawn) | < 0.1 | < 0.1 | 
20 | O=C(Nc1c2c(cc3c1CCC3)CCC2)NS(=O)(=O)c1cnn2c1OC[C@@H](O)C2 | < 0.1 | 0.1 to 1 | 
21 | Cc1ccc(S(=O)(=O)N2CC3(COc4c(S(=O)(=O)NC(=O)Nc5c6c(cc7c5CCC7)CCC6)cnn4C3)C2)cc1 | 0.1 to 1 | 1 to 10 | 
22 | O=C(Nc1c2c(c(F)c3c1CCC3)CCC2)NS(=O)(=O)c1cnn2c1OCCC2 | < 0.1 | < 0.1 | 

From US11702428B2, “Chemical compounds as inhibitors of interleukin-1 activity” (Genentech, Inc., priority 2017, dated 2023)
